Laboratory results from patent US20250304582A1, “Bicyclic Ureas As Kinase Inhibitors” (Incyte Corporation, priority 2024, published 2025).
pIC50: −log10 of the molar value.

Legend:
[1] = molecular target: T1, catalytic domain (JH1, amino acids 826-1132) of human JAK2 (Homo sapiens, UniProt O60674); assay: JAK2 LanthaScreen JH1 Binding Assay; conditions: 50 nM fluorescent JAK2-JH1 tracer, 2 hours at 25° C.; read-out: JH1 BIND (EX. A)
T1 construct: catalytic domain (JH1, amino acids 826-1132) of human JAK2; FLAG (N); purchased Carna Biosciences 08-445-20N; host or cells: baculovirus expression system
T1 sequence (O60674 826-1132): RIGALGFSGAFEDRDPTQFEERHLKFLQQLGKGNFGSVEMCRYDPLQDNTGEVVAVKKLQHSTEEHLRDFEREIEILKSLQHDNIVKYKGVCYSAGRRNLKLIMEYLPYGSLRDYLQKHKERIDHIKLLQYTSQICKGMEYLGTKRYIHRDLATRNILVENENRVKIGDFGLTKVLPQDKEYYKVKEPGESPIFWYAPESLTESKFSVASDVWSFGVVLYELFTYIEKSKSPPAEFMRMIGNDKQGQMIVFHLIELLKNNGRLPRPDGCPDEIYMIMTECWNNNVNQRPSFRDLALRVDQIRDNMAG
Summary of the method: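 FLAG-tagged biotinylated JAK2 JH1 (1.5 nM) was incubated 2 h at 25° C with compound, 50 nM fluorescent tracer and 0.5 nM Streptavidin-Tb in Tris pH 7.5 buffer. Tracer displacement read by TR-FRET; nonspecific binding defined with 2 mM ATP. IC50 from four-parameter fit.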

[2] = molecular target: T2, pseudo-kinase domain (JH2, amino-acids 536-812) of human Wild Type JAK2 (Homo sapiens, UniProt O60674, F794H/W659A/W777A); assay: JAK2 LanthaScreen JH2-WT Binding Assay; conditions: 50 nM Fluorescent JAK2-JH2 Tracer, 1 hour at 25° C.; read-out: JH2 BIND WT (EX. B)
T2 construct: JH2, amino-acids 536-812 with 3 surface mutations W659A, W777A, F794H; His (C); purchased BPS Bioscience 79463; host or cells: baculovirus expression system
T2 sequence (O60674 536-812 W659A/W777A/F794H): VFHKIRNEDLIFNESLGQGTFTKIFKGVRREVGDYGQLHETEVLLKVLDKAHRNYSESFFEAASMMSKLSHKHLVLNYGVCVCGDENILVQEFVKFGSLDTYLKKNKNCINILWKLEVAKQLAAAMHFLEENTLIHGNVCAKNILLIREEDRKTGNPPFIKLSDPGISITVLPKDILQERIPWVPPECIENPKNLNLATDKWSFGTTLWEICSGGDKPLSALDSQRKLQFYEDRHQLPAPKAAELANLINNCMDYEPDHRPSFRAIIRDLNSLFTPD
Summary of the method: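 JH2 domain (0.145 nM; His-Avi-tagged, biotinylated, baculovirus-expressed) incubated 1 h at 25° C. with compounds, 50 nM fluorescent JH2 tracer and 0.25 nM streptavidin-Tb in pH 7.5 Tris buffer with MgCl2, EGTA, DTT. Non-specific binding defined with 2 mM ATP. TR-FRET tracer displacement read; IC50 from four-parameter fit.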

[3] = molecular target: T3, pseudo-kinase domain (JH2, amino-acids 536-812) of human V617F mutant JAK2 (Homo sapiens, UniProt O60674, F794H/V617F/W659A/W777A); assay: JAK2 LanthaScreen JH2-V617F Binding Assay; conditions: 50 nM Fluorescent JAK2-JH2 Tracer, 1 hour at 25° C.; read-out: JH2 BIND V617F (Ex. C)
T3 construct: JH2, amino-acids 536-812 with 3 surface mutations W659A, W777A, F794H; His (C); purchased BPS Bioscience 79498; host or cells: baculovirus expression system
T3 sequence (O60674 536-812 V617F/W659A/W777A/F794H): as the sequence (O60674 536-812 W659A/W777A/F794H) above, with V82F counted along it
Summary of the method: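 Biotinylated His-Avi-tagged JH2 construct (536-812, W659A/W777A/F794H) at 0.26 nM, with 50 nM fluorescent JH2 tracer and 0.25 nM streptavidin-Tb, in pH 7.5 Tris/MgCl2 buffer; 1 h at 25° C. Non-specific binding defined with 2 mM ATP. IC50 derived from TR-FRET signal by four-parameter dose-response fit.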

[4] = molecular target: T4, catalytic domain (JH1, amino acids 808-1132) of human JAK2 (Homo sapiens, UniProt O60674); assay: JAK2 HTRF Enzyme Activity Assay; type: biochemical; conditions: ATP (30 μM or 1 mM; not stated which for the table), 60 minutes at 25° C.; read-out: JAK2 HTRF (Ex. D)
T4 construct: catalytic domain (JH1, amino acids 808-1132) of human JAK2; His (N); purchased BPS Bioscience 40450; host or cells: baculovirus expression system
T4 sequence (O60674 808-1132): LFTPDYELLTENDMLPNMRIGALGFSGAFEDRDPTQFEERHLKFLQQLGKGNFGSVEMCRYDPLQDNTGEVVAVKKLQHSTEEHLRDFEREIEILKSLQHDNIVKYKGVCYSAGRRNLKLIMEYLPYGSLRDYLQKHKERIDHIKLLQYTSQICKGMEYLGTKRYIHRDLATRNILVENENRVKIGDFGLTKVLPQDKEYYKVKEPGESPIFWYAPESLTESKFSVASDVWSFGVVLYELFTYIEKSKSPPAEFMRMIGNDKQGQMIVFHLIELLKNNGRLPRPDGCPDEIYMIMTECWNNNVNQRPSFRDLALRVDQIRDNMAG
Summary of the method: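 N-terminal His-tagged, baculovirus-expressed JH1 domain (0.015 nM) reacts 60 min at 25 °C with 500 nM biotinylated peptide and 30 μM or 1 mM ATP in Tris pH 7.5/10 mM MgCl2. Phosphorylation is detected by HTRF with Eu-anti-phosphotyrosine (PY20) and streptavidin-APC after EDTA stop. IC50 comes from four-parameter fits.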

Row | Structure (SMILES) | pIC50 [1] | pIC50 [2] | pIC50 [3] | pIC50 [4]
1 | [2H]C([2H])([2H])n1c(=O)n([C@@H]2CC[C@@H](NC(=O)OC)C2)c2cc(Nc3ccc4cc(F)cc(C(F)(F)F)c4n3)ncc21 [Example 27, Methyl ((1R,3R)-3-(6-((6-fluoro-8-(trifluoromethyl)quinolin-2-yl)amino)-3-(methyl-d3)-2-oxo-2,3-dihydro-1H-imidazo[4,5-c]pyridin-1-yl)cyclopentyl)carbamate] | < 6.00 | ≥ 8.00 | ≥ 8.00 | < 6.00
2 | [2H]C([2H])([2H])n1c(=O)n([C@@H]2CC[C@@H](NC(=O)OC)C2)c2cc(Nc3ccc4cncc(C)c4n3)ncc21 [Example 28, Methyl ((1R,3R)-3-(3-(methyl-d3)-6-((8-methyl-1,6-naphthyridin-2-yl)amino)-2-oxo-2,3-dihydro-1H-imidazo[4,5-c]pyridin-1-yl)cyclopentyl)carbamate] | < 6.00 | ≥ 8.00 | ≥ 8.00 | < 6.00
3 | [2H]C([2H])([2H])n1c(=O)n([C@@H]2CC[C@@H](NC(=O)OC)C2)c2cc(Nc3cc(C(C)(C)O)c4nccc(C)c4n3)ncc21 [Example 29, Methyl ((1R,3R)-3-(6-((4-(2-hydroxypropan-2-yl)-8-methyl-1,5-naphthyridin-2-yl)amino)-3-(methyl-d3)-2-oxo-2,3-dihydro-1H-imidazo[4,5-c]pyridin-1-yl)cyclopentyl)carbamate] | < 6.00 | ≥ 8.00 | ≥ 8.00 | < 6.00
4 | [2H]C([2H])([2H])n1c(=O)n([C@@H]2CC[C@@H](NC(=O)OC)C2)c2cc(Nc3ccc4ncc(C(C)C(F)(F)F)n4n3)ncc21 (stereo partly drawn) [Example 30, Methyl ((1R,3R)-3-(3-(methyl-d3)-2-oxo-6-((3-(1,1,1-trifluoropropan-2-yl)imidazo[1,2-b]pyridazin-6-yl)amino)-2,3-dihydro-1H-imidazo[4,5-c]pyridin-1-yl)cyclopentyl)carbamate] | < 6.00 | ≥ 8.00 | ≥ 8.00 | < 6.00
5 | [2H]C([2H])([2H])n1c(=O)n([C@@H]2CC[C@@H](NC(=O)OC)C2)c2cc(Nc3ccc4ncc(C(F)(F)F)n4n3)ncc21 [Example 31, Methyl ((1R,3R)-3-(3-(methyl-d3)-2-oxo-6-((3-(trifluoromethyl)imidazo[1,2-b]pyridazin-6-yl)amino)-2,3-dihydro-1H-imidazo[4,5-c]pyridin-1-yl)cyclopentyl)carbamate] | < 6.00 | ≥ 8.00 | ≥ 8.00 | < 6.00
6 | [2H]C([2H])([2H])n1c(=O)n([C@@H]2CC[C@@H](NC(=O)OC)C2)c2cc(Nc3ccc4cccc([N+](=O)[O-])c4n3)ncc21 [Example 35, Methyl ((1R,3R)-3-(3-(methyl-d3)-6-((8-nitroquinolin-2-yl)amino)-2-oxo-2,3-dihydro-1H-imidazo[4,5-c]pyridin-1-yl)cyclopentyl)carbamate] | < 6.00 | ≥ 8.00 | ≥ 8.00 | < 6.00
7 | [2H]C([2H])([2H])n1c(=O)n([C@@H]2CC[C@@H](NC(=O)OC)C2)c2cc(Nc3ccc4nccc(C#N)c4n3)ncc21 [Example 36, Methyl ((1R,3R)-3-(6-((8-cyano-1,5-naphthyridin-2-yl)amino)-3-(methyl-d3)-2-oxo-2,3-dihydro-1H-imidazo[4,5-c]pyridin-1-yl)cyclopentyl)carbamate] | < 6.00 | ≥ 8.00 | ≥ 8.00 | < 6.00
8 | [2H]C([2H])([2H])n1c(=O)n([C@@H]2CC[C@@H](NC(=O)OC)C2)c2cc(Nc3cnc4cccc(C#N)c4n3)ncc21 [Example 37, Methyl ((1R,3R)-3-(6-((8-cyanoquinoxalin-2-yl)amino)-3-(methyl-d3)-2-oxo-2,3-dihydro-1H-imidazo[4,5-c]pyridin-1-yl)cyclopentyl)carbamate] | 6.30 to 7.00 | ≥ 8.00 | 7.00 to 8.00 | 6.30 to 7.00
9 | COC(=O)N[C@@H]1CC[C@@H](n2c(=O)n(C)c3cnc(Nc4ccc5cccc(C(F)F)c5n4)cc32)C1 [Example 38, Methyl ((1R,3R)-3-(6-((8-(difluoromethyl)quinolin-2-yl)amino)-3-methyl-2-oxo-2,3-dihydro-1H-imidazo[4,5-c]pyridin-1-yl)cyclopentyl)carbamate] | < 6.00 | ≥ 8.00 | ≥ 8.00 | < 6.00
10 | COC(=O)N[C@@H]1CC[C@@H](n2c(=O)n(C)c3cnc(Nc4ccc5cccc(C)c5n4)cc32)C1 [Example 39, Methyl ((1R,3R)-3-(3-methyl-6-((8-methylquinolin-2-yl)amino)-2-oxo-2,3-dihydro-1H-imidazo[4,5-c]pyridin-1-yl)cyclopentyl)carbamate] | < 6.00 | ≥ 8.00 | 7.00 to 8.00 | < 6.00
11 | COC(=O)N[C@H]1CC[C@H](n2c(=O)n(C)c3cnc(Nc4ccc5cccc(Cl)c5n4)cc32)C1 [Example 40, Methyl ((1S,3S)-3-(6-((8-chloroquinolin-2-yl)amino)-3-methyl-2-oxo-2,3-dihydro-1H-imidazo[4,5-c]pyridin-1-yl)cyclopentyl)carbamate] | < 6.00 | ≥ 8.00 | 7.00 to 8.00 | < 6.00
12 | COC(=O)N[C@@H]1CC[C@@H](n2c(=O)n(C)c3cnc(Nc4ccc5cccc(C(F)(F)F)c5n4)cc32)C1 [Example 41, Methyl ((1R,3R)-3-(3-methyl-2-oxo-6-((8-(trifluoromethyl)quinolin-2-yl)amino)-2,3-dihydro-1H-imidazo[4,5-c]pyridin-1-yl)cyclopentyl)carbamate] | < 6.00 | ≥ 8.00 | ≥ 8.00 | < 6.00
13 | COC(=O)N[C@@H]1CC[C@@H](n2c(=O)n(C)c3cnc(Nc4ccc5ncc(C#N)n5n4)cc32)C1 [Example 42, Methyl ((1R,3R)-3-(6-((3-cyanoimidazo[1,2-b]pyridazin-6-yl)amino)-3-methyl-2-oxo-2,3-dihydro-1H-imidazo[4,5-c]pyridin-1-yl)cyclopentyl)carbamate] | < 6.00 | ≥ 8.00 | ≥ 8.00 | < 6.00
14 | COC(=O)N[C@@H]1CC[C@@H](n2c(=O)n(C)c3cnc(Nc4ccc5cccc(C#N)c5n4)cc32)C1 [Example 43, Methyl ((1R,3R)-3-(6-((8-cyanoquinolin-2-yl)amino)-3-methyl-2-oxo-2,3-dihydro-1H-imidazo[4,5-c]pyridin-1-yl)cyclopentyl)carbamate] | < 6.00 | ≥ 8.00 | ≥ 8.00 | < 6.00
15 | COC(=O)N[C@@H]1CC[C@@H](n2c(=O)n(C)c3cnc(Nc4ccc5ccc(C#N)cc5n4)cc32)C1 [Example 44, Methyl ((1R,3R)-3-(6-((7-cyanoquinolin-2-yl)amino)-3-methyl-2-oxo-2,3-dihydro-1H-imidazo[4,5-c]pyridin-1-yl)cyclopentyl)carbamate] | < 6.00 | 6.30 to 7.00 | 6.30 to 7.00 | < 6.00
16 | COC(=O)N[C@@H]1CC[C@@H](n2c(=O)n(C)c3cnc(Nc4ccc5cc(C#N)ccc5n4)cc32)C1 [Example 45, Methyl ((1R,3R)-3-(6-((6-cyanoquinolin-2-yl)amino)-3-methyl-2-oxo-2,3-dihydro-1H-imidazo[4,5-c]pyridin-1-yl)cyclopentyl)carbamate] | < 6.00 | 7.00 to 8.00 | 6.30 to 7.00 | < 6.00
17 | [2H]C([2H])([2H])n1c(=O)n([C@@H]2CC[C@@H](NC(=O)OC)C2)c2cc(Nc3ccc4c(C(C)(C)O)ccc(C(F)(F)F)c4n3)ncc21 [Example 47, Methyl ((1R,3R)-3-(6-((5-(2-hydroxypropan-2-yl)-8-(trifluoromethyl)quinolin-2-yl)amino)-3-(methyl-d3)-2-oxo-2,3-dihydro-1H-imidazo[4,5-c]pyridin-1-yl)cyclopentyl)carbamate] | < 6.00 | ≥ 8.00 | ≥ 8.00 | < 6.00
